pIC50: −log10 of the molar value. The source made the active and inactive calls. The calls are words filed in the database; no cut-off is given here.
Test system: Rattus norvegicus
Test: Antihypertensive activity in spontaneously hypertensive rat assessed as reduction of mean blood pressure at 30 mg/kg, po
Type: functional
Set-up: scale not given: the % may be the effect or the level left
Conditions: not given

In the case of CCC(CC)(CNC(=O)C1CCN(CCc2ccccc2)CC1)c1ccc(F)cc1, the Activity was 22%.

Test system: Rattus norvegicus
Test: Toxicity in spontaneously hypertensive rat assessed as effect on reflex tachycardia at 30 mg/kg, po after 8 hrs
Type: organism-based
Set-up: dose 30 mg/kg, route oral
Conditions: in vivo

With CCC(CC)(CNC(=O)C1CCN(CCc2ccccc2)CC1)c1ccc(F)cc1 the Activity was “Non-toxic”.

Target: Voltage-dependent T-type calcium channel subunit alpha-1G (Homo sapiens, UniProt O43497)
Sequence (O43497 whole entry): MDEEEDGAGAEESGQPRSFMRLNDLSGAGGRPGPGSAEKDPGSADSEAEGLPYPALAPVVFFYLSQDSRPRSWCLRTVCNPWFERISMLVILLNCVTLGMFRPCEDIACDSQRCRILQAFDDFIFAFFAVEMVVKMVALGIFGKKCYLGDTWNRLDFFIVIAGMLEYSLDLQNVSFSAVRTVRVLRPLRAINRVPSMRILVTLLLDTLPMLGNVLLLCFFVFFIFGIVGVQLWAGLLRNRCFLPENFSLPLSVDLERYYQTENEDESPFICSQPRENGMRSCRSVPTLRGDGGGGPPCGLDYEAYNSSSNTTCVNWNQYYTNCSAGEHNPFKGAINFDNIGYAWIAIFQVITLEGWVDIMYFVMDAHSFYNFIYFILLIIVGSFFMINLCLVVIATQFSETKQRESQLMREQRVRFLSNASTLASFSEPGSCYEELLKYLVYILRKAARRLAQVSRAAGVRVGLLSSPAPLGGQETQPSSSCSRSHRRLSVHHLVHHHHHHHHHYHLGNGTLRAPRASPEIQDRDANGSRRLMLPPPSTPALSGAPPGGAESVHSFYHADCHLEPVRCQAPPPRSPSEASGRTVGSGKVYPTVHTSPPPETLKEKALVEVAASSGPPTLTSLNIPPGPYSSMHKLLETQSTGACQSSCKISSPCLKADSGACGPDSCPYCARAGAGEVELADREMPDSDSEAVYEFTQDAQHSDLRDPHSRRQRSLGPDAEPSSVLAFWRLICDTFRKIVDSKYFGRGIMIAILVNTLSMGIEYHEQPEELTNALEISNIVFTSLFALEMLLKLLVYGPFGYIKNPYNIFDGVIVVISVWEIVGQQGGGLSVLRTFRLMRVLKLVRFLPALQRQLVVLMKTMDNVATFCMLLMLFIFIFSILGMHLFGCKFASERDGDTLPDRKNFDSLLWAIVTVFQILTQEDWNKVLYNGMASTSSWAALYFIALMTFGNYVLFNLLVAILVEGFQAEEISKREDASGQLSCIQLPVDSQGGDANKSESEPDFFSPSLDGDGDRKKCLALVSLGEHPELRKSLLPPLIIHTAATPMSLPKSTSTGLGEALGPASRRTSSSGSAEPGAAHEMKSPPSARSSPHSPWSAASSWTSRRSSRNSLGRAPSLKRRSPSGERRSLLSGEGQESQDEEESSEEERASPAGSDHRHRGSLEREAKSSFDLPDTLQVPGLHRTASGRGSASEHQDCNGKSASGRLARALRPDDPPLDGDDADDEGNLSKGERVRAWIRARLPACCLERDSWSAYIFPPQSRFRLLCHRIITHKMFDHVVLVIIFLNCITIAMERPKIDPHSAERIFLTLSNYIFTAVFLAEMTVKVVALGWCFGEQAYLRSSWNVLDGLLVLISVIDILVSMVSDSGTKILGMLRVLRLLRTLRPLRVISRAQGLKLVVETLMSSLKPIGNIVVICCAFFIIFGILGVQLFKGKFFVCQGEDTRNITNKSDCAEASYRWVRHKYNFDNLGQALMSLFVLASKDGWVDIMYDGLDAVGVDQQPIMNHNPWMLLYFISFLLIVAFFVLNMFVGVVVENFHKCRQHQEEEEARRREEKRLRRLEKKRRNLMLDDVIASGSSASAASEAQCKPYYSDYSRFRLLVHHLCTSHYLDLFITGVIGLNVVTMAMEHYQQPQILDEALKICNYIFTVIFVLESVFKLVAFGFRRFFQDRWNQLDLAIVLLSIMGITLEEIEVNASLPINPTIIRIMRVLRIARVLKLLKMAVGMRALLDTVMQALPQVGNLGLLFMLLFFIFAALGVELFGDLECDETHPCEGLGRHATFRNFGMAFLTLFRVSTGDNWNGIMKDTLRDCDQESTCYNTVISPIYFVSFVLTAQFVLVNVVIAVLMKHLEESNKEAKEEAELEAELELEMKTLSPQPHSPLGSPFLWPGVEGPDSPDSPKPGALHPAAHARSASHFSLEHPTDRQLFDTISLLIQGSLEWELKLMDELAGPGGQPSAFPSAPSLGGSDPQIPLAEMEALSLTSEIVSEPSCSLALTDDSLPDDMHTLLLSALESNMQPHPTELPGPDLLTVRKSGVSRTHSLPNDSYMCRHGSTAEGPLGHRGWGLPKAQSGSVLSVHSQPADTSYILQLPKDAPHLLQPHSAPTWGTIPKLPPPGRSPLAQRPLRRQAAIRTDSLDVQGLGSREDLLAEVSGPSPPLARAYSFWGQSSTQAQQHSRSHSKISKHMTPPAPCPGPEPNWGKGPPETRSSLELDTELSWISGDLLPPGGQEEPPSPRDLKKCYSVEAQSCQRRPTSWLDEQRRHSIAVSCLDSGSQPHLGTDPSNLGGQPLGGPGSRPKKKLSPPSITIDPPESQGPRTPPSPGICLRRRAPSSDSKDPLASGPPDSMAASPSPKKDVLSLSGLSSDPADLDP
Test: Inhibition of human Cav3.1 alpha1G expressed in HEK293 cells assessed as inhibition of calcium influx by FLIPR assay
Type: cell-based
Conditions: not given

In order of rising pIC50:
1. O=C(NCC1(c2ccc(F)cc2)CCCCC1)C1CCCCN1Cc1ccccc1 (configuration not stated)  5.52
2. O=C(NCC1(c2ccc(F)cc2)CCOCC1)C1CCN(Cc2ccccc2)CC1  5.66
3. O=C(CCC1(c2ccc(F)cc2)CCCCC1)C1CCN(Cc2ccccc2)CC1  5.70
4. O=C(NCC1(c2ccc(F)cc2)CCCCC1)C1CCCN(Cc2ccccc2)C1 (configuration not stated)  5.92
5. Fc1ccc(C2(CNCC3CCN(Cc4ccccc4)CC3)CCCCC2)cc1  5.92
6. O=C(CC1(c2ccc(F)cc2)CCCCC1)NC1CCN(Cc2ccccc2)CC1  6.07
7. CCC(CC)(CNC(=O)C1CCN(CCc2ccc(OC)cc2)CC1)c1ccc(F)cc1  6.11
8. CN(CC1(c2ccc(F)cc2)CCCCC1)C(=O)C1CCN(Cc2ccccc2)CC1  6.12
9. O=C(NCC1(c2ccc(F)cc2)CCCCC1)C1CCN(Cc2ccccc2)CC1  6.29
10. O=C(NCC1(c2ccc(F)cc2)CCC1)C1CCN(Cc2ccccc2)CC1  6.41
11. CCCC(CCC)(CNC(=O)C1CCN(Cc2ccccc2)CC1)c1ccc(F)cc1  6.43
12. COc1ccc(CN2CCC(C(=O)NCC3(c4ccc(F)cc4)CCCCC3)CC2)cc1OC  6.49
13. CCC(CC)(CNC(=O)C1CCN(CCOc2ccccc2)CC1)c1ccc(F)cc1  6.59
14. CCC(CC)(CNC(=O)C1CCN(CCCCc2ccccc2)CC1)c1ccc(F)cc1  6.60
15. CCC(CC)(CNC(=O)C1CCN(CCCc2ccccc2)CC1)c1ccc(F)cc1  6.62
16. O=C(NCC1(c2ccc(F)cc2)CCCC1)C1CCN(Cc2ccccc2)CC1  6.66
17. CCC(CC)(CNC(=O)C1CCN(Cc2ccc(OC)cc2)CC1)c1ccc(F)cc1  6.70
18. CCC(CC)(CNC(=O)C1CCN(CCc2ccc(F)cc2)CC1)c1ccc(F)cc1  6.74
19. CCC(CC)(CNC(=O)C1CCN(CCc2ccccc2OC)CC1)c1ccc(F)cc1  6.77
20. CCC(CC)(CNC(=O)C1CCN(CCc2cccc(OC)c2)CC1)c1ccc(F)cc1  6.85
21. CCC(CC)(CNC(=O)C1CCN(Cc2cccc(F)c2)CC1)c1ccc(F)cc1  6.89
22. CC(C)(CNC(=O)C1CCN(Cc2ccccc2)CC1)c1ccc(F)cc1  6.89
23. CCC(CC)(CNC(=O)C1CCN(CCc2cccc(F)c2)CC1)c1ccc(F)cc1  6.89
24. CCC(CC)(CNC(=O)C1CCN(Cc2ccccc2OC)CC1)c1ccc(F)cc1  6.92
25. CCC(CC)(CNC(=O)C1CCN(Cc2cccc(OC)c2)CC1)c1ccc(F)cc1  7.03
26. CCC(CC)(CNC(=O)C1CCN(CCc2ccccc2F)CC1)c1ccc(F)cc1  7.05
27. CCC(CC)(CNC(=O)C1CCN(CCc2ccccc2)CC1)c1ccc(F)cc1  7.05
28. CCC(CC)(CNC(=O)C1CCN(Cc2ccccc2)CC1)c1ccc(F)cc1  7.07
29. CCC(CC)(CNC(=O)C1CCN(Cc2ccc(F)cc2)CC1)c1ccc(F)cc1  7.09
30. CCC(CC)(CNC(=O)C1CCN(Cc2ccccc2F)CC1)c1ccc(F)cc1  7.44

Test system: not listed separately
Test: Bradycardic activity in Hartley guinea pig right atrial muscles assessed as reduction of initial spontaneous beat rate after 30 mins
Type: functional
Conditions: Cavia porcellus, Muscle tissue, 0.5 h

In order of rising EC30:
1. COc1ccc(CN2CCC(C(=O)NCC3(c4ccc(F)cc4)CCCCC3)CC2)cc1OC  2100 nM
2. CCC(CC)(CNC(=O)C1CCN(CCc2ccccc2)CC1)c1ccc(F)cc1  2500 nM
3. COCC(=O)O[C@]1(CCN(C)CCCc2nc3ccccc3[nH]2)CCc2cc(F)ccc2[C@@H]1C(C)C [MIBEFRADIL]  2900 nM
4. CCC(CC)(CNC(=O)C1CCN(Cc2ccccc2F)CC1)c1ccc(F)cc1  4200 nM

Test system: Rattus norvegicus
Test: Antihypertensive activity in spontaneously hypertensive rat assessed as reduction of mean blood pressure at 30 mg/kg, po after 8 hrs
Type: functional, organism-based
Set-up: dose 30 mg/kg
Conditions: not given

For CCC(CC)(CNC(=O)C1CCN(CCc2ccccc2)CC1)c1ccc(F)cc1, the Activity was “Active”.

From ChEMBL document CHEMBL1817645, “Synthesis and pharmacological evaluation of 1-alkyl-N-[2-ethyl-2-(4-fluorophenyl)butyl]piperidine-4-carboxamide derivatives as novel antihypertensive agents” (Bioorg Med Chem, 2011)
